Source: patent publication US11331310B2, “Method of treating cocaine addiction” (MyMD Pharmaceuticals (Florida), Inc., priority 2015, dated 2022)
Entries after “also recorded” stand apart in the source; their conditions may differ.

Assays:
MPTP-induced toxicity = details: mice, cited from earlier work; for dopamine levels: MPTP
MAO-B [1] = target: T1, MAO-B (Homo sapiens, UniProt P27338); details: cited from earlier work
T1 sequence (P27338 1-520): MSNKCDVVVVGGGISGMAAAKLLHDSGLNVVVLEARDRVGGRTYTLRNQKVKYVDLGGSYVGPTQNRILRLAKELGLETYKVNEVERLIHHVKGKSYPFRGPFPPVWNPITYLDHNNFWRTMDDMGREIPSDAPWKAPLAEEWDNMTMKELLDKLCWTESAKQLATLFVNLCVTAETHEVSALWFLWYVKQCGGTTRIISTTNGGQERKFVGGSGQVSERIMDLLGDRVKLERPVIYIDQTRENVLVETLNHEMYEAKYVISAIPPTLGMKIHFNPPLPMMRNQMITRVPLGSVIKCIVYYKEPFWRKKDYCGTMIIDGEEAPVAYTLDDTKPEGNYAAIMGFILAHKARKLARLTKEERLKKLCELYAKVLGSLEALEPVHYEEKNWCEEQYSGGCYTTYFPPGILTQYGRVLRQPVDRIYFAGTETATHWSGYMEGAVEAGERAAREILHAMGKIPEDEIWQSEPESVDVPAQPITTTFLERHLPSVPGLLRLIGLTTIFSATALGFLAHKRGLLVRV

MAO-A [2] = target: T2, MAO-A (Homo sapiens, UniProt P21397); details: cited from earlier work
T2 construct: purchased
T2 sequence (P21397 1-527): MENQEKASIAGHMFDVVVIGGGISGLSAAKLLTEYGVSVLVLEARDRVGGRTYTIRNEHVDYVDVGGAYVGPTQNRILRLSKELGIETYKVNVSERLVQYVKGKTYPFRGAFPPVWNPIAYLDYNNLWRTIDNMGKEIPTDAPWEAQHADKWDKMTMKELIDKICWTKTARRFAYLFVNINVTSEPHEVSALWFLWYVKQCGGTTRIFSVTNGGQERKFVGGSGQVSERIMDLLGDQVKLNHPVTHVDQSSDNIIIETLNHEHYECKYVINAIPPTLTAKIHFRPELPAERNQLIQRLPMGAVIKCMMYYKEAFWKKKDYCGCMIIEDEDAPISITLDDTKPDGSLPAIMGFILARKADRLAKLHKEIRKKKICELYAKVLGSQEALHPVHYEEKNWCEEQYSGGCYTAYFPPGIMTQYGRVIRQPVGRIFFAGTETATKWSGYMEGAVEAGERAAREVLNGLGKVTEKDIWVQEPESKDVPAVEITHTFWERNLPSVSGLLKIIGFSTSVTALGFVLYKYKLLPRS

MAO-A [3] = target: T2, MAO-A; assay: MAO-Glo luminescent assay, MAO-A inhibition; assay type: biochemical
Description: (§1) This example describes experiments for determining monoamine oxidase (MAO) inhibition for isomyosmine and other alkaloids. MAOs are enzymes located on the outer membrane of mitochondria and are involved in the catabolism of monoamine neurotransmitters. There are two well-characterized isoenzymes: MAO-A, which predominantly catabolizes serotonin and norepinephrine, and MAO-B, which preferentially catabolizes benzylamine and phenylethylamine. Dopamine and tyramine are metabolized by both isoforms.
(§2) To detect the activity of MAO, a luminescent method (MAO-Glo Assay kit, from Promega, Cat #V1401) was used. In this method, a MAO substrate (a derivative of beetle luciferin provided in the kit) is mixed with the compound to be tested (in this case, myosmine and control compounds). Then, the MAO enzymes (either A or B, purchased separately) are added to the mixture and incubated with the reaction for 1 hour at room temperature. The MAO enzymes, if not inhibited by the test compound, will convert the substrate into methyl ester luciferin. Finally, a luciferin detection reagent (provided by the kit) is added (20 minutes at room temperature) to stop the MAO reaction and convert methyl ester luciferin into D-luciferin. […] The luminescent signal is measured and recorded using a luminometer. […]

MAO-B [4] = target: T1, MAO-B; assay: MAO-Glo luminescent assay, MAO-B inhibition; assay type: biochemical; details: 1 hour at room temperature, compared among five alkaloids
Description: as §1, §2

[5] = Oxygen saturation in individuals after oral administration; assay type: in vivo; details: fourteen individuals, one hour after oral administration, 100-300 mg depending on body weight
Description: Increasing oxygen saturation levels is believed to make isomyosmine particularly effective for treating substance addictions, including tobacco/nicotine addictions, as well as addictions to heroin, cocaine, opioids, methadone, d-methamphetamine, barbiturates, alcohol, benzodiazepines, amphetamines, or buprenorphine. For example, substances such as cocaine are known to cause blood vessels to constrict, resulting in increased heartrate and blood pressure and increased stress on the heart's ability to circulate blood and oxygen through the body. Increasing oxygen saturation levels may, among other things, counteract these types of effects associated with substance abuse by increasing blood oxygen levels, aiding in the treatment of the underlying addiction.

| SMILES | dopamine levels (MPTP-induced toxicity) | decrease in dopamine metabolite levels induced by MPTP (MPTP-induced toxicity) | MAO inhibitory effects against MAO-B (MAO-B [1]) | MAO inhibitory effects against MAO-A (MAO-A [2]) | also measured |
| --- | --- | --- | --- | --- | --- |
| c1ccc(-c2ccncc2)cc1 [4-phenylpyridine] | no significant effect | prevented the decrease | – | – | – |
| c1cncc([C@@H]2CCCCN2)c1 [anabasine] | – | – | exhibited MAO inhibitory effects | exhibited MAO inhibitory effects | – |
| C1=CCC(c2cccnc2)NC1 (stereo not drawn) [anatabine] | – | – | exhibited MAO inhibitory effects | exhibited MAO inhibitory effects | – |
| C1=NC(c2cccnc2)CC1 (stereo not drawn) [isomyosmine, 3-(3,4-dihydro-2H-pyrrol-2-yl)-pyridine] | – | – | – | – | inhibition at 2000 µM (MAO-A [3]; 2 mM concentration (2,000 micromolar)): ~50%; inhibition of the enzymatic activity of MAO-A (in words, curve position in FIG. 1) (MAO-A [3]; 1 hour at room temperature, compared among five alkaloids): most potent of the five; also recorded: potent inhibitor; inhibition of the activity of MAO-B (in words, FIG. 2) (MAO-B [4]): potent inhibitor; inhibition of the activity of MAO-B (in words, FIG. 2) (MAO-B [4]; listed as Isomyosmine): most potent among the five alkaloids tested; oxygen saturation (%) [5]: dramatically increase |
| CN1CCCC1c1cccnc1 (stereo not drawn) [nicotine] | no significant effect | prevented the decrease | – | – | – |
| c1cncc([C@@H]2CCCN2)c1 [nornicotine] | – | – | exhibited MAO inhibitory effects | exhibited MAO inhibitory effects | – |
